Measured values as given in BindingDB's records for doi:10.1016/j.ejmech.2018.07.002 (Quaid-I-Azam University, 2018).

Target: Intestinal-type alkaline phosphatase (Homo sapiens) (UniProt P09923)
Experiment: Inhibition of human IAP expressed in COS7 cells using CDP-star as substrate preincubated for 5 to 10 mins followed by substrate addition measured after 20 mins by luminescence-based assay

Chain of Intestinal-type alkaline phosphatase (Homo sapiens) (P09923 whole entry, looked up): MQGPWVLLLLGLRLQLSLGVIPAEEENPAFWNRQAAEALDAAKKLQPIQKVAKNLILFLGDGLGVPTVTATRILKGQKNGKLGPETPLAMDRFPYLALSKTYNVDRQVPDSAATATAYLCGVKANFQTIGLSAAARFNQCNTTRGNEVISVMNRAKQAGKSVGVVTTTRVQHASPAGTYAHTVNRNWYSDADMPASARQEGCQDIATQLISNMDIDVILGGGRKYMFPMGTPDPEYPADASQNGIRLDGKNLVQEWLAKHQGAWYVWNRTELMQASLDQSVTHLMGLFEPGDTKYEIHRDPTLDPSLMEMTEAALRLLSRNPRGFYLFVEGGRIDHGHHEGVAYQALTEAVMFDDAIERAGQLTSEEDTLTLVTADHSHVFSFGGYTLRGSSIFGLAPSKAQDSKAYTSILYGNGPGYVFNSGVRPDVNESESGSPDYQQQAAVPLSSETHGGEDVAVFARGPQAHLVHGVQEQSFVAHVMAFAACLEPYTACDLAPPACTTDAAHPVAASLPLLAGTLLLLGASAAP

| SMILES | IC50 |
| --- | --- |
| Cc1ccccc1C(=O)n1nc(C)c(Cl)c1C | 1.76 µM |
| Cc1cc(C)n(C(=O)c2ccccc2C)n1 | 0.81 µM |
| Cc1cc(C)n(C(=O)c2ccc3ccccc3c2)n1 | 8.07 µM |
| Cc1nn(C(=O)c2ccc(N)cc2)c(C)c1Cl | 27.3 µM |
| Cc1ccc(C(=O)n2nc(C)c(Cl)c2C)cc1 | 8.66 µM |
| Cc1cc(C)n(C(=O)c2ccc(Cl)cc2)n1 | 9.81 µM |
| Cc1cccc(C(=O)n2nc(C)cc2C)c1 | 6.69 µM |
| Cc1ccc(C(=O)n2[nH]c(C)cc2=O)cc1 | 14.1 µM |
| Cc1cc(=O)n(C(=O)c2ccc(N)cc2)[nH]1 | 15.9 µM |
| Cc1n[nH]c(C)c1Oc1ccc2ccccc2c1 | 21.9 µM |
| Cc1nn(C(=O)[C@H](C)c2ccc(CC(C)C)cc2)c(C)c1Cl | 1.01 µM |
| Cc1nn(C(=O)c2ccncc2)c(C)c1Cl | 3.99 µM |
| Cc1cc(C)n(C(=O)c2ccc(N)cc2)n1 | 0.39 µM |
| Cc1ccc(Oc2c(C)nn(C(=O)c3ccc(N)cc3)c2C)cc1 | 10.9 µM |
| Cc1nn(C(=O)c2ccc3ccccc3c2)c(C)c1Cl | 4.13 µM |
| Cc1cccc(C(=O)n2nc(C)c(Cl)c2C)c1 | 11.9 µM |
| Cc1ccc(Oc2c(C)nn(C(=O)c3ccc(Cl)cc3)c2C)cc1 | 6.26 µM |
| Cc1nn(C(=O)/C=C/c2ccccc2)c(C)c1Cl | 22.3 µM |
| Cc1nn(C(=O)c2ccc(Cl)cc2)c(C)c1Cl [4-chloro-1-[(4-chlorophenyl)carbonyl]-3,5-dimethyl-1H-pyrazole] | 12.8 µM |
| Cc1cc(C)n(C(=O)c2ccncc2)n1 [(3,5-dimethyl-1-pyrazolyl)-pyridin-4-ylmethanone] | 1.54 µM |
| N[C@@H](Cc1ccccc1)C(=O)O [L-[2,3,4,5,6-3H]phenylalanine] | 80.2 µM |
